Experimental data as given in patent publication US7705016B2, “Regulation of food intake by modulation of long-chain fatty acyl-CoA levels in the hypothalamus” (Albert Einstein College of Medicine of Yeshiva University, priority 2003, dated 2010).

How the values were obtained:
[1] = system: male Sprague-Dawley (S-D) rats; assay: Feeding behavior after ICV oleic acid bolus; assay type: in vivo, rat; conditions: for decrease in food intake compared with pre-injection basal levels: SC animals
Source text: Animals and Experimental Design. Ten week-old male Sprague-Dawley (S-D) rats (Charles River Breeding Laboratories, Inc., Wilmington, Mass.) were housed in individual cages and subjected to a standard light dark cycle (0600-1800/1800-0600). At 14 days before the in vivo studies, all rats received implantations of ICV catheters by stereotaxic surgery as previously described (36). Rats were allowed to recover completely before initiation of all in vivo studies. Animals were fed a standard chow (SC, cat. no. 5001, Purina Mills Ltd, with 59% calories provided by carbohydrate, 28% by protein and 12% by fat, 3.3 kcal/g), a high sucrose (HS; animals were given free access to a 20% sucrose solution in addition to their standard chow diet), or a highly palatable high fat diet (HF, cat. no. 9389; Purina Mills Ltd., with 45% calories provided by carbohydrate, 22% by protein and 33% by fat, 5.32 kcal/g) which was designed by the supplementation of the SC diet with 10% lard. The lard contained 2% myristic acid, 24% palmitic acid, 13% stearic acid, 46% oleic acid, and 12% linoleic acid. The total composition of fats in the HF diet was 5.2% saturated, 6.2% monounsaturated, and 2.7% polyunsaturated fat by weight. The SC diet contained 1%, 1.5%, and 1.6% of saturated, monounsaturated, and polyunsaturated fats by weight, respectively. Five groups of animals ere included in the feeding and metabolic studies (described below) after three days on the following diet regimens (Table 2): 1) SC ad libitum (SC; ˜80 kcal/day); 2) HS ad libitum (HS; ˜95 kcal/day); 3) HF ad libitum (HF140; ˜140 kcal/day); 4) HF calorie restricted (HF55; ˜55 kcal/day); and 5) HF pair-fed to SC(HF80; ˜80 kcal/day). Central Delivery of OA. OA was complexed with the polymer hydroxypropyl-3-cyclodextrin (HPB, CTD Inc). […] OA was solubilized in 45% HPB to a final concentration of 17 mM. The HPB-OA solution was diluted in artificial cerebral spinal fluid (aCSF) to the appropriate concentration used for each ICV injections (30 or 300 nmol/5 μl). HPB alone at a similar concentration as in the OA studies was used in all vehicle control studies. Feeding Behavior Studies. This experimental protocol was designed to examine the acute effect of ICV OA on food intake in three experimental groups fed a standard chow (SC), a high sucrose diet (HS95) and a high fat diet (HF140). SC and HF140 animals were allowed to eat their diets ad libitum. HS animals were given free access to a 20% sucrose solution in addition to the standard chow diet for three days. Following three days of ad libitum feeding in all groups, on study day 0 (FIG. 5a), rats were given an ICV bolus injection of either […] of OA (30 nmol) or vehicle at a rate of 1 μl/min using a gas-tight syringe (Hamilton Corp) one hour before the start of the dark cycle. Food intake was measured at the same time daily for three days post-injection.

PEPCK mRNA = assay: Hepatic PEPCK mRNA after ICV OA (northern blot); assay type: in vivo, rat; conditions: either group (HF55, HF140)
Protocol: Northern Blot Analysis. Total RNA was isolated from hypothalami and liver with Trizol (Invitrogen Corp., California, USA). NPY, Glc-6-Pase or PEPCK expression was measured by northern blot analysis. Hypothalamic RNA was analyzed using probes for prepro-NPY and β-actin. To assess the effect of ICV OA on the expression of hepatic enzymes, total RNA was isolated from freeze-clamped liver tissues from rats subjected to insulin clamp studies. Glc-6-Pase and PEPCK cDNA were obtained as previously described (Combs et al., 2001; Massillon et al., 1996; 1998). Probes were labeled with [α-^32P] dCTP using a random primer kit (Stratagene). Quantification was performed by scanning densitometry, normalizing for β-actin signal and 18S ribosomal RNA to correct for loading variabilities. Effect of ICV OA on the hepatic expression of Glc-6-Pase and PEPCK. The potent effects of the central administration of OA on hepatic glucose fluxes prompted us to examine whether changes in the liver mRNA levels of key metabolic enzymes can partly account for these effects. Thus, we next measured the liver abundance of Glc-6-Pase and PEPCK mRNA as a function of 18S ribosomal RNA (FIG. 9d) or β-actin mRNA (not shown) in tissue samples obtained after ICV infusion of either OA or vehicle in caloric restricted and over-fed rats. […]

`CCCCCCCC/C=C\CCCCCCCC(=O)O` [OA, oleic acid] was tested. Which “decrease in daily food intake” value ([1]; HF140, ICV OA 30 nmol, first day) did it give?
The value was 11%.

And the “decrease in daily food intake” value ([1]; HF140, ICV OA 30 nmol, second day)?
The value was −2%.

What about the “decrease in daily food intake” value ([1]; HS95, ICV OA 30 nmol, first day) of the same compound?
The value was 21%.

And the “decrease in daily food intake” value ([1]; HS95, ICV OA 30 nmol, second day)?
Its value is 17%.

And the “decrease in food intake compared with pre-injection basal levels” value ([1]; ICV OA 30 nmol, first day)?
The value was 48%.

What about the “decrease in food intake compared with pre-injection basal levels” value ([1]; ICV OA 30 nmol, second day) of the same compound?
The value was 52%.

What about the “return to baseline food intake after the OA injection” value ([1]; all groups (SC, HS95, HF140)) of the same compound?
Its value is 3 days.

And the “effect on feeding behavior” value ([1]; high fat chow)?
Its value is “failed to significantly alter feeding behavior”.

What about the “effect on feeding behavior” value ([1]; high sucrose chow) of the same compound?
Its value is “failed to significantly alter feeding behavior”.

What about the duration of anorexia ([1]; standard chow, ICV OA 30 nmol) of the same compound?
The duration of anorexia was 48 h.

What about the “decrease in food intake” value ([1]; standard chow, for 2 days) of the same compound?
Its value is roughly 50%.

And the “liver expression of PEPCK” value (PEPCK mRNA)?
The value was “failed to significantly alter”.
